Measured values published in US8304223B2, “Isoforms of pig liver esterase” (Enzymicals AG, priority 2007, dated 2012).
Like-named read-outs stand apart in the source and are kept apart here.

Legend:
[1] = test system: PLE 4; assay: Influence of inhibitors, remaining activity by pNPA assay; format: biochemical, pig; details: 25° C.
Protocol: (§1) Esterase activity was determined spectrophotometrically in sodium phosphate buffer (50 mM) by means of p-nitrophenyl acetate (10 mM, dissolved in dimethyl sulfoxide) as substrate. The amount of p-nitrophenol generated was determined at a wavelength of 410 nm (ε=15*10^3 M^−1 cm^−1) at RT and pH 7.5. 1 unit (U) is defined as the amount of enzyme capable of converting 1 μM p-nitrophenol per minute under analytical conditions (Krebsfänger, N., et. al., (1998) Enzyme Microb. Technol, 22, 641-646).
(§2) The inhibitability of the new PLE variants was determined by treating the crude extracts with any of three esterase inhibitors. […] Samples were taken at certain points in time and the remaining esterase activity was determined by the pNPA assay.

[2] = test system: PLE 5; assay: as above; format: biochemical, pig; details: 25° C.
Protocol: as §1, §2

[3] = test system: PLE 3; assay: as above; format: biochemical, pig; details: 25° C.
Protocol: as §1, §2

[4] = target: T1, PLE 1 (γ-PLE) (Sus scrofa, UniProt Q29550); assay: biochemical; format: biochemical, pig; details: 25° C.; for Remaining activity in %: inhibitor 1 mM; for remaining activity at 10 µM: inhibitor 0.01 mM
T1 construct: made in house; host or cells: E. coli Origami (DE3) with pGro7 (GroEL/GroES coexpression), crude extract
T1 sequence (Q29550 with tags, fused parts or gaps): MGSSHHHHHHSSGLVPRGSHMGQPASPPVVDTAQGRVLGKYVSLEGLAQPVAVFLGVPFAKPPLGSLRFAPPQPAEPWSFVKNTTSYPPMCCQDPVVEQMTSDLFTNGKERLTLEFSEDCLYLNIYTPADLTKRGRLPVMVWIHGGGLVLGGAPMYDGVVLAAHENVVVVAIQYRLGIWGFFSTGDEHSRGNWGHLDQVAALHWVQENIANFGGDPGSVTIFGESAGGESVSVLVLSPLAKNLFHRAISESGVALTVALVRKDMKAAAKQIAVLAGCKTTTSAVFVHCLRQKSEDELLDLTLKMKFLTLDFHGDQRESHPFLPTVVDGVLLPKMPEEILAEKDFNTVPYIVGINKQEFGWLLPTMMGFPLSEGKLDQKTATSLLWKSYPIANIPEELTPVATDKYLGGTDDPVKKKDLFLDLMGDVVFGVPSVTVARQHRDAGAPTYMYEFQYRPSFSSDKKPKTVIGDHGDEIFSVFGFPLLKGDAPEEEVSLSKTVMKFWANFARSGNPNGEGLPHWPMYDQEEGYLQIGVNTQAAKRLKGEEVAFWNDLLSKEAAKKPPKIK
Protocol: as §1, §2

[5] = target: T2, PLE 2 (Sus scrofa, UniProt Q29550, F477A/K481R/L479F); assay: biochemical; format: biochemical, pig; details: 25° C.; for Remaining activity in %: inhibitor 1 mM; for remaining activity at 10 µM: inhibitor 0.01 mM
T2 construct: made in house; host or cells: E. coli Origami (DE3) with pGro7 (GroEL/GroES coexpression), crude extract
T2 sequence (Q29550 19-562 F477A/L479F/K481R): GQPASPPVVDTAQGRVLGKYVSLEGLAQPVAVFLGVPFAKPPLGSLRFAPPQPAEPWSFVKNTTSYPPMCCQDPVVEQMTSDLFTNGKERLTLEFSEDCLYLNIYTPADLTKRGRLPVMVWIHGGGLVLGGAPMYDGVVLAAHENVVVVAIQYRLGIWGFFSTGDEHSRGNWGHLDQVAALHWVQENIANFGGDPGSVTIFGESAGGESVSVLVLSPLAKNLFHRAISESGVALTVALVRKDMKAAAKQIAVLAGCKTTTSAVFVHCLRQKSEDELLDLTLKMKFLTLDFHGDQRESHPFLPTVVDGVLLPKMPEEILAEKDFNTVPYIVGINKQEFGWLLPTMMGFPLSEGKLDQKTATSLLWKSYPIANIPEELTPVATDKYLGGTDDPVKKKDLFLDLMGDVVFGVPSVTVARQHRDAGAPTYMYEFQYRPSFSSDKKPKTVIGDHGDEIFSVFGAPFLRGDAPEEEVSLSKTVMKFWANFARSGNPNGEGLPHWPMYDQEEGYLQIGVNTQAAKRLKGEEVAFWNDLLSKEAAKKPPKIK
Protocol: as §1, §2

[6] = Native PAGE with Fast Red activity staining; format: biochemical; details: crude extracts, Fast Red staining with α-naphthyl acetate
Protocol: A mixture containing the crude extract of recombinantly produced PLE (5-15 μL, corresponding to 0.05-0.15 U of pNPA analysis) was mixed with buffer solution (20% (w/v) glycerol; 0.0025% (w/v) bromophenol blue in dH2O) (5-10 μL). Aliquots thereof were separated on a native polyacrylamide gel (7.5%). For activity staining, the gel was incubated in a mixture of freshly prepared α-naphthyl acetate and Fast Red. Formation of a red complex between α-naphthol generated and Fast Red indicated hydrolytic activity of the esterase. (Krebsfänger, N., et. al., (1998) Enzyme Microb. Technol, 22, 641-646). The gel was then stained with Coomassie Brilliant Blue.
Esterase activity was checked by applying the crude extracts to a native gel which was then incubated in Fast Red solution with α-naphthyl acetate as substrate. This was followed by Coomassie staining (FIG. 4: Native PAGE of the crude extracts of PLE2, clone 12, PLE3, PLE4, PLE5, γPLE and the E. coli Origami pGro7 wild type (negative control). Left-hand side: Fast Red staining with α-naphthyl acetate, right-hand side: subsequent Coomassie Brilliant Blue staining).

[7] = pNPA assay of esterase activity (crude extracts); format: biochemical; details: crude extract, N-terminal His6 tag
Protocol: The chaperones were coexpressed with the PLE isoenzymes in 150 ml of LB medium containing 20 μg mL^−1 chloramphenicol and 50 μg mL^−1 ampicillin for plasmid selection. Chaperone expression was immediately initiated by adding 1 mg mL^−1 L-arabinose. PLE production was induced at OD600=0.5 by adding 40 μM IPTG. The cells were removed by centrifugation after 24 h, resuspended in 10 ml of sodium phosphate buffer (50 mM, pH 7.5) and disrupted using ultrasound. Cell debris was removed by centrifugation, and the supernatant was used for further experiments (crude cell extract). Protein content and esterase activity were determined according to Bradford or using the pNPA assay.
as §1

[8] = pH stat activity with achiral ester triolein; format: biochemical; details: purified enzyme, pH stat at 37° C. and pH 7.5, 10 min
Protocol: (§3) Esterase substrate specificity was analyzed at constant pH. A known amount of esterase was added to an emulsion (20 mL) containing an ester substrate (5% (v/v); tributyrin, ethyl acetate, triolein or methyl butyrate) and gum arabic (2% (w/v)) at 37° C. The acid liberated was counter titrated automatically in a pH statiometer (Schott, Mainz, Germany) with 0.01 N NaOH in order to maintain a constant pH of 7.5. 1 unit (U) is defined as the amount of enzyme capable of generating 1 μM acid per minute under analytical conditions.

[9] = Kinetic resolution of the racemates of substrate 2; format: biochemical; details: calculated according to Chen et al.
Protocol: (§4) Hydrolysis was carried out in 1.5 ml reaction vessels in a thermomixer (Thermomixer comfort Eppendorf, Hamburg, Germany) at 37° C. 0.5 U esterase crude extract (based on the pNPA assay) were used for 1 ml of substrate solution (10 mM in sodium phosphate buffer pH 7.5, 50 mM). The reaction was stopped by extracting the mixture with dichloromethane, and the organic phase was dried over anhydrous sodium sulfate.
(§5) Enantiomeric purity and conversion were determined by gas chromatography. Enantioselectivity of the variant enzymes was calculated according to Chen et al. (C. S. Chen, Y. Fujimoto, G. Girdaukas, C. J. Sih, J. Am. Chem. Soc. 1982, 104, 7294.).
(§6) For a more detailed description of the synthesis of the substrates and the retention times in GC analysis, see Musidlowska-Persson, A. and Bornscheuer, U. T., “Substrate Specificity of the γ-isoenzyme of recombinant pig liver esterase towards acetates of secondary alcohols” J. Mol. Catal. B. Enzym. 2002, 19-20, 129-133.

[10] = Kinetic resolution of the racemates of substrate 3; format: biochemical; details: calculated according to Chen et al.
Protocol: as §4, §5, §6

[11] = substrate 4; literature data (*); cited from earlier work
[12] = Kinetic resolution of the racemates of substrate 1; format: biochemical; details: calculated according to Chen et al.
Protocol: as §4, §5, §6

[13] = pH stat activity with achiral ester methyl butyrate; format: biochemical; details: purified enzyme, pH stat at 37° C. and pH 7.5, 10 min
Protocol: as §3

[14] = pH stat activity with achiral ester tributyrin; format: biochemical; details: purified enzyme, pH stat at 37° C. and pH 7.5, 10 min
Protocol: as §3

[15] = pH stat activity with achiral ester ethyl caprylate; format: biochemical; details: purified enzyme, pH stat at 37° C. and pH 7.5, 10 min
Protocol: Esterase substrate specificity was analyzed at constant pH. […] The acid liberated was counter titrated automatically in a pH statiometer (Schott, Mainz, Germany) with 0.01 N NaOH in order to maintain a constant pH of 7.5. 1 unit (U) is defined as the amount of enzyme capable of generating 1 μM acid per minute under analytical conditions.

[16] = pH stat activity with achiral ester ethyl acetate; format: biochemical; details: purified enzyme, pH stat at 37° C. and pH 7.5, 10 min
Protocol: as §3

Molecule: [F-].[Na+] [NaF, sodium fluoride]
- Remaining activity in % ([1]; inhibitor 1 mM, 5 min): 64%
- Remaining activity in % ([1]; inhibitor 1 mM, 30 min): 66%
- Remaining activity in % ([2]; inhibitor 1 mM, 5 min): 83%
- Remaining activity in % ([2]; inhibitor 1 mM, 30 min): 88%
- Remaining activity in % ([3]; inhibitor 1 mM, 5 min): 44%
- Remaining activity in % ([3]; inhibitor 1 mM, 30 min): 46%
- Remaining activity in % ([4]; 5 min): 20%
- Remaining activity in % ([4]; 30 min): 21%
- Remaining activity in % ([5]; 5 min): 17%
- Remaining activity in % ([5]; 30 min): 15%

Molecule: O=S(=O)(F)Cc1ccccc1 [Phenylmethylsulfonyl fluoride (PMSF), phenylmethylsulfonyl fluoride]
- Remaining activity in % ([1]; inhibitor 0.01 mM, 1 min): 78%
- Remaining activity in % ([1]; inhibitor 0.01 mM, 5 min): 56%
- Remaining activity in % ([1]; inhibitor 0.01 mM, 30 min): 7%
- Remaining activity in % ([1]; inhibitor 0.01 mM, 60 min): 2%
- Remaining activity in % ([2]; inhibitor 0.01 mM, 1 min): 88%
- Remaining activity in % ([2]; inhibitor 0.01 mM, 5 min): 76%
- Remaining activity in % ([2]; inhibitor 0.01 mM, 30 min): 24%
- Remaining activity in % ([2]; inhibitor 0.01 mM, 60 min): 3%
- Remaining activity in % ([3]; inhibitor 0.01 mM, 1 min): 77%
- Remaining activity in % ([3]; inhibitor 0.01 mM, 5 min): 51%
- Remaining activity in % ([3]; inhibitor 0.01 mM, 30 min): 7%
- Remaining activity in % ([3]; inhibitor 0.01 mM, 60 min): 5%

Molecule: CNC(=O)Oc1ccc2c(c1)[C@]1(C)CCN(C)[C@@H]1N2C [Physostigmine, physostigmine]
- remaining activity at 10 µM ([4]; 1 min): 41%
- remaining activity at 10 µM ([4]; 5 min): 12%
- remaining activity at 10 µM ([4]; 30 min): 7%
- remaining activity at 10 µM ([5]; 1 min): 61%
- remaining activity at 10 µM ([5]; 5 min): 25%
- remaining activity at 10 µM ([5]; 30 min): 6%

B1: PLE 1: previously disclosed γ-isoenzyme of pig liver esterase (Seq. ID No. 2), recombinant from E. coli Origami with GroEL/ES (protein)
chain: T1 sequence (Q29550 with tags, fused parts or gaps)
modifications: Pig liver
- Esterase activity (active bands) in native gel [6]: Active esterase bands are visible
- Volume activity [7]: 11 U/ml
- Specific activity, Triolein [8]: 0
- E (enantioselectivity) [9]: 17
- E (enantioselectivity) [10]: 72
- E (enantioselectivity) [11]: 17
- E (enantioselectivity) [12]: 4
- Specific activity, Methyl butyrate [13]: 57
- Specific activity, Tributyrin [14]: 306
- Specific activity, Ethyl caprylate [15]: 63
- Specific activity, Ethyl acetate [16]: 38
